Laboratory results from patent US8791113B2, “2,4-diaryl-substituted [1,8] naphthyridines as kinase inhibitors for use against cancer” (Merck Patent GmbH, priority 2010, dated 2014).

Key:
[1] = tested on: TGF-beta-induced phosphorylation of Smad2 (Ser465/467) and Smad3 (Ser423/425) in Mv1-Lu cells; experiment: Inhibition of Smad2/3 phosphorylation in Mv1Lu cells (PathScan Phospho-Smad2 ELISA); assay type: cell-based, mink Mustela vison; details: Neogale vison, Mv1-Lu cells, TGF-beta 1 5 ng/ml, Phospho-Smad2/3 ELISA, read-out: TβR activity (Example 51)
Procedure: Inhibition of Smad2/3 Phosphorylation in Mv1 Lu Cells by TGF-Beta Receptor I Kinase Inhibitors
This assay was used to determine the inhibitory potency of compounds on TGF-beta-induced phosphorylation of Smad2 (Ser465/467) and Smad3 (Ser423/425). Mv1-Lu cells (lung epithelial cell line from mink Mustela vison; ATCC number: CCL-64) were seeded in DMEM (Invitrogen) supplemented with 10% fetal bovine serum (Pan Biotech) at a defined cell density in 24-well or 96-well plates (24-well plate: 1.5×10^5 cells per well; 96-well plate: 4×10^4 cells per well). Cell cultures were incubated in DMEM at 37° C. and 10% CO2. On the next day, the medium was replaced and cells were serum-starved for 16-20 hours. The following day, serial dilutions of compounds were added to the wells, pre-incubated for 1.5 hrs before recombinant TGF-beta 1 ligand (final concentration 5 ng/ml; R&D systems) was added. After one hour of ligand stimulation, lysates were prepared and analyzed using an enzyme-linked immunosorbent assay kit (PathScan Phospho-Smad2 Kit, Cell Signaling Technologies). The ELISA detects phosphorylated Smad2 as well as phosphorylated Smad3 with the phospho-specific antibody. TGF-beta stimulated cells and unstimulated cells served as positive and negative controls (100% and background control). The concentration of the vehicle DMSO was kept constant at 0.2% (v/v) in all wells. Dose-response relationships were fitted using curve fitting algorithms of the RS1 statistics software package (Brooks Automation Inc. RS/1- Statistical Tools Handbook. Release 6.2) to determine the concentration at which half-maximal inhibition (IC50) of Smad2/3 phosphorylation was achieved.

[2] = target: T1, GST-ALK5 (TGF-beta receptor kinase) (Homo sapiens, UniProt P36897); experiment: In-vitro (enzyme) kinase flashplate assay: GST-ALK5 phosphorylation of GST-SMAD2 with 33P-ATP; assay type: biochemical; details: 384-well flashplate kinase assay, GST-ALK5 / GST-SMAD2, 33P-ATP, 30° C., 45 min; read-out: TβR activity (Example 50)
T1 sequence (P36897 34-503): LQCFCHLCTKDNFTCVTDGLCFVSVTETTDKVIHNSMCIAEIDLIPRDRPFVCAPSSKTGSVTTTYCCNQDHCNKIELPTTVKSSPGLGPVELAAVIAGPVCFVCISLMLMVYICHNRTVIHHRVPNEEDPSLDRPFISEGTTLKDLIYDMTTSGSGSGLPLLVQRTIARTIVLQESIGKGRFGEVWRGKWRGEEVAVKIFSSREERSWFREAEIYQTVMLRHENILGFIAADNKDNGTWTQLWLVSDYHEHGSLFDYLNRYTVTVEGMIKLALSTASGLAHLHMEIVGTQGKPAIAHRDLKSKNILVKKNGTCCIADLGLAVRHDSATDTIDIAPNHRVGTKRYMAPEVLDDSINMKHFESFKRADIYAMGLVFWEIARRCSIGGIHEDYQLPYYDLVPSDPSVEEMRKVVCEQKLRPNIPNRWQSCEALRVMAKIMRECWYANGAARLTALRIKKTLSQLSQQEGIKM
Procedure: In-vitro (Enzyme) Assay for Determination of the Efficacy of Inhibitors of the Inhibition of TGF-Beta-Mediated Effects
The kinase assay was carried out as 384-well flashplate assay. 31.2 nM of GST-ALK5, 439 nM of GST-SMAD2 and 3 mM of ATP (with 0.3 μCi of ^33P-ATP/well) were incubated in a total volume of 35 μl (20 mM of HEPES, 10 mM of MgCl2, 5 mM of MnCl2, 1 mM of DTT, 0.1% of BSA, pH 7.4) without or with test substance (5-10 concentrations) at 30° C. for 45 min. The reaction was stopped using 25 μl of 200 mM EDTA solution, filtered with suction at room temperature after 30 min, and the wells were washed with 3 times 100 μl of 0.9% NaCl solution. Radioactivity was measured in the TopCount. The IC50 values were calculated using RS1.

| SMILES | IC50 [1] | IC50 [2] |
| --- | --- | --- |
| CC(=O)Nc1ccc2cnccc2c1-c1cc(-c2ccccc2F)nc2ncccc12 [Compound 85, N-{5-[2-(2-Fluoro-phenyl)-[1,8]naphthyridin-4-yl]-isoquinolin-6-yl}-acetamide] | > 10000 nM | 1000 to 10000 nM |
| [O-][n+]1ccc2c(-c3cc(-c4ccccc4F)nc4ncccc34)nccc2c1 [Compound 88, 2-(2-Fluoro-phenyl)-4-(6-oxy-[2,6]naphthyridin-1-yl)-[1,8]naphthyridine] | > 10000 nM | > 10000 nM |
| Nc1nccc2c(-c3cc(-c4ccccc4Cl)nc4ncccc34)nccc12 [Compound 90, 5-[2-(2-Chloro-phenyl)-[1,8]naphthyridin-4-yl]-[2,6]naphthyridin-1-ylamine] | 1000 to 10000 nM | < 1000 nM |
| CCN(CC)CCn1cc(-c2cc(-c3cc(Cl)ccc3F)nc3ncccc23)c2ccncc2c1=O [Compound 104, 4-[2-(5-Chloro-2-fluoro-phenyl)-[1,8]naphthyridin-4-yl]-2-(2-diethylamino-ethyl)-2H-[2,7]naphthyridin-1-one] | 1000 to 10000 nM | 1000 to 10000 nM |
| O=c1[nH]cc(-c2cc(-c3cc(F)ccc3F)nc3ncccc23)c2ccncc12 [Compound 107, 4-[2-(2,5-Difluoro-phenyl)-[1,8]naphthyridin-4-yl]-2H-[2,7]naphthyridin-1-one] | < 1000 nM | < 1000 nM |
| Cc1occc1-c1cc(-c2c[nH]c3cnccc23)c2cccnc2n1 [Compound 108, 2-(2-Methyl-furan-3-yl)-4-(1H-pyrrolo[2,3-c]pyridin-3-yl)-[1,8]naphthyridine] | < 1000 nM | < 1000 nM |
| Nc1nccc2c(-c3cc(-c4c(F)cccc4F)nc4ncccc34)nccc12 [Compound 109, 5-[2-(2,6-Difluoro-phenyl)-[1,8]naphthyridin-4-yl]-[2,6]naphthyridin-1-ylamine] | > 10000 nM | < 1000 nM |
| O=c1cc(-c2cc(-c3cc(Cl)ccc3F)nc3ncccc23)c2ccncc2n1CCN1CCOCC1 [Compound 110, 4-[2-(5-Chloro-2-fluoro-phenyl)-[1,8]naphthyridin-4-yl]-1-(2-morpholin-4-yl-ethyl)-1H-[1,7]naphthyridin-2-one] | > 10000 nM | 1000 to 10000 nM |
| Fc1ccccc1-c1cc(-c2ccnc3cnccc23)c2cccnc2n1 [Compound 111, 4-[2-(2-Fluoro-phenyl)-[1,8]naphthyridin-4-yl]-[1,7]naphthyridine] | > 10000 nM | < 1000 nM |
| Fc1ccc(Cl)cc1-c1cc(-c2cc(OCCN3CCOCC3)nc3cnccc23)c2cccnc2n1 [Compound 112, 4-[2-(5-Chloro-2-fluoro-phenyl)-[1,8]naphthyridin-4-yl]-2-(2-morpholin-4-yl-ethoxy)-[1,7]naphthyridine] | < 1000 nM | < 1000 nM |
| Nc1nccc2c(-c3cc(-c4ccccc4F)nc4ncccc34)ccnc12 [Compound 113, 4-[2-(2-Fluoro-phenyl)-[1,8]naphthyridin-4-yl]-[1,7]naphthyridin-8-ylamine] | < 1000 nM | < 1000 nM |
| Nc1ccc2c(-c3nccc4c(N)nccc34)cc(-c3ccccc3F)nc2n1 [Compound 114, 5-(5-Amino-[2,6]naphthyridin-1-yl)-7-(2-fluoro-phenyl)-[1,8]naphthyridin-2-ylamine] | < 1000 nM | < 1000 nM |
| COc1cnc(-c2cc(-c3ccccc3F)nc3ncccc23)c2ccncc12 [Compound 115, 2-(2-Fluoro-phenyl)-4-(4-methoxy-[2,6]naphthyridin-1-yl)-[1,8]naphthyridine] | < 1000 nM | < 1000 nM |
| Cn1cc(-c2cnc3nc(-c4ccccc4F)cc(-c4nccc5c(N)nccc45)c3c2)cn1 [Compound 116, 5-[2-(2-Fluoro-phenyl)-6-(1-methyl-1H-pyrazol-4-yl)-[1,8]naphthyridin-4-yl]-[2,6]naphthyridin-1-ylamine] | > 10000 nM | > 10000 nM |
| Nc1ccc2c(-c3cccc4c(N)nccc34)cc(-c3ccccc3F)nc2n1 [Compound 117, 5-(1-Amino-isoquinolin-5-yl)-7-(2-fluoro-phenyl)-[1,8]naphthyridin-2-ylamine] | < 1000 nM | < 1000 nM |

Next, values leading:

| IC50 [1] | IC50 [2] | SMILES |
| --- | --- | --- |
| < 1000 nM | < 1000 nM | CCN(CC)CCOc1ccc(-c2cc(-c3cc(Cl)ccc3F)nc3ncccc23)c2ccncc12 [Compound 86, (2-{5-[2-(5-Chloro-2-fluoro-phenyl)-[1,8]naphthyridin-4-yl]-isoquinolin-8-yloxy}-ethyl)-diethyl-amine] |
| < 1000 nM | < 1000 nM | Nc1nccc2c(-c3cc(-c4ccccc4)nc4ncccc34)nccc12 [Compound 87, 5-(2-Phenyl-[1,8]naphthyridin-4-yl)-[2,6]naphthyridin-1-ylamine] |
| < 1000 nM | < 1000 nM | O=c1[nH]cc(-c2cc(-c3cc(Cl)ccc3F)nc3ncccc23)c2ccncc12 [Compound 89, 4-[2-(5-Chloro-2-fluoro-phenyl)-[1,8]naphthyridin-4-yl]-2H-[2,7]naphthyridin-1-one] |
| < 1000 nM | < 1000 nM | O=c1c2cnccc2c(-c2cc(-c3cc(Cl)ccc3F)nc3ncccc23)cn1CCN1CCCC1 [Compound 91, 4-[2-(5-Chloro-2-fluoro-phenyl)-[1,8]naphthyridin-4-yl]-2-(2-pyrrolidin-1-yl-ethyl)-2H-[2,7]naphthyridin-1-one] |
| < 1000 nM | < 1000 nM | CCN(CC)CCNc1ccc(-c2cc(-c3cc(Cl)ccc3F)nc3ncccc23)c2ccncc12 [Compound 92, N′-{5-[2-(5-Chloro-2-fluoro-phenyl)-[1,8]naphthyridin-4-yl]-isoquinolin-8-yl}-N,N-diethyl-ethane-1,2-diamine] |
| < 1000 nM | < 1000 nM | CCN(CC)CCOc1ncc(-c2cc(-c3cc(Cl)ccc3F)nc3ncccc23)c2ccncc12 [Compound 98, (2-{4-[2-(5-Chloro-2-fluoro-phenyl)-[1,8]naphthyridin-4-yl]-[2,7]naphthyridin-1-yloxy}-ethyl)-diethyl-amine] |
| < 1000 nM | < 1000 nM | COc1ccc(-c2cc(-c3cc(F)ccc3F)nc3ncccc23)c2ccncc12 [Compound 99, 2-(2,5-Difluoro-phenyl)-4-(8-methoxy-isoquinolin-5-yl)-[1,8]naphthyridine] |
| < 1000 nM | < 1000 nM | Fc1ccc(Cl)cc1-c1cc(-c2cnc(OCCN3CCCC3)c3cnccc23)c2cccnc2n1 [Compound 100, 2-(5-Chloro-2-fluoro-phenyl)-4-[1-(2-pyrrolidin-1-yl-ethoxy)-[2,7]naphthyridin-4-yl]-[1,8]naphthyridine] |
| < 1000 nM | < 1000 nM | c1coc(-c2cc(-c3c[nH]c4cnccc34)c3cccnc3n2)c1 [Compound 101, 2-Furan-2-yl-4-(1H-pyrrolo[2,3-c]pyridin-3-yl)-[1,8]naphthyridine] |
| < 1000 nM | < 1000 nM | Fc1ccc(Cl)cc1-c1cc(-c2ccc(OCCN3CCCC3)c3cnccc23)c2cccnc2n1 [Compound 102, 2-(5-Chloro-2-fluoro-phenyl)-4-[8-(2-pyrrolidin-1-yl-ethoxy)-isoquinolin-5-yl]-[1,8]naphthyridine] |
| < 1000 nM | < 1000 nM | CCN(CC)CCOc1ccc(-c2cc(-c3cc(F)ccc3F)nc3ncccc23)c2ccncc12 [Compound 103, (2-{5-[2-(2,5-Difluoro-phenyl)-[1,8]naphthyridin-4-yl]-isoquinolin-8-yloxy}-ethyl)-diethyl-amine] |
